The results in this text go back to a melting point compilation (Tetko et al.; mined from patent text by program, amines drawn as free bases though some values may be those of a salt).

On to `CN1CCC(N(C)c2ncc3ncnc(Nc4ccc(Cl)c([N+](=O)[O-])c4)c3n2)CC1`, for which the melting point (commonly the temperature of the solid-liquid transition) was 210 to 215 °C.
Next, `CN(C)Cc1cc(C(C)(C)c2cc(CN(C)C)c(O)c(CN(C)C)c2)cc(CN(C)C)c1O`: 88 to 90 °C; `Cc1nc2cc3c(cc2c(=O)[nH]1)C(N(C)c1ccc(C(=O)NC(CCc2nnn[nH]2)C(=O)O)c(F)c1)CC3` (mixture of isomers): 203 to 205 °C.
In the case of `Nc1ncc(CCC2CCCCC2)s1`, the melting point is 98 to 99 °C.
Under `CNC(=S)NCCCCc1nc[nH]c1C` stands 110 to 112 °C; under `O=C(O)CN1C(=O)N(Cc2cccc([N+](=O)[O-])c2)C(=O)C1O` (stereo not drawn), 153 to 155 °C; under `CCCCNC(=O)c1ncc[nH]1`, 188 to 190 °C.
As to `O=C(CN1CCCC1)NCc1ccc2c(c1)-c1[nH]nc(-c3ccsc3)c1C2`, the melting point fell in the range of 201 to 204 °C.
Next, `CCCN1CCC(C(=O)O)=Cc2cc(Br)ccc21`: 172 to 173 °C.
Next, `Clc1nc2cc(Br)c(Br)cc2[nH]1`: 228 °C; `O=c1cc(Nc2cccc(-c3ccncc3)c2)c1=O`: 252 to 256 °C.
Next, `CC(CN=C(O)C(Cl)=C(Cl)C(=O)O)Cc1ccc(C(C)(C)C)cc1` (stereo not drawn): 64 to 65 °C.
On to `O=[N+]([O-])c1cn2c(n1)O[C@@H](COc1ccc(N3CCC(Nc4ccc(OCc5ccc(OC(F)(F)F)cc5)cc4)CC3)cc1)CC2`, for which the melting point was in the range of 227 to 229 °C.
Next, `OCc1ccc(O)c(CO)c1CNCCCCCCOCCCCCc1ccco1`: 59 to 60 °C.
Next, `Cc1nn2c(-c3cccc(NC(=O)CC(C)C)c3)ccnc2c1C(=O)c1cccs1`: 137 to 139 °C.
Next, `CCOC(=O)c1csc(N2N=C(c3ccc([N+](=O)[O-])cc3)c3cc4c(cc3CC2C)OCO4)n1` (stereo not drawn): 242 to 243 °C.
Turning to `COc1ccc(-c2ccc(C(C)=O)cc2)cc1`, the melting point was 156 °C.
Compound `Cn1ncnc1-c1oc2cccc(OCCc3ccc(F)cc3)c2c(=O)c1O` came in with a melting point of 215 to 217 °C.
Next, `CC(C)S(=O)(=O)C(C#N)=C(Nc1cc(C(F)(F)F)cc(C(F)(F)F)c1)NC1CCC1`: 148 to 150 °C; `Cc1nnc(Cl)c2cc3n(c12)CCCC3`: 272 to 274 °C.
Under `COCOc1cc(-n2c(OC)nc(C(F)(F)F)cc2=O)c(F)cc1Cl` stands 97 to 98 °C.
For `COC(=O)C1CCC2C3CCC4CC(=O)CCC4(C)C3C(NCCC(C)C)CC12C` (stereo not drawn), the melting point lay in the range of 86 to 89 °C.
Under `CCC(C)(C)NC(=O)NC1=CC(=O)OC1` stands 169 to 171 °C; under `Nc1c(CC(=O)O)cccc1Oc1ccc(Cl)cc1Cl`, 123 to 124 °C.
Next, `CC(C)Cn1c(CN2C(=O)c3ccccc3C2=O)c(-c2ccc(F)cc2)c2cc(OCc3ccccc3)ccc2c1=O`: 198 to 199 °C; `CCCc1c(OCCCCCCCCOc2ccc(C(=O)c3cccc(C(=O)O)c3)cc2CCC(=O)O)ccc2c1OCCC2=O`: 112 to 117 °C; `CCC[C@H]1CC[C@H](CCc2ccc(-c3ccc(C#N)cc3F)cc2)CC1`: 89.4 °C.
Next, `COc1ccc(NC(=O)c2ccc(F)c(F)c2)cc1NS(=O)(=O)c1cccc(C#N)c1`: 212 to 214 °C; `CC(Oc1ccc(Oc2ncc(Cl)cc2F)cc1)C(=O)Nc1ccc(OC(F)(F)F)cc1` (stereo not drawn): 92 to 93.5 °C; `COc1ccc2cc(C(C)C)ccc2c1`: 63.5 to 64.5 °C.
For `Cc1c(Cl)cccc1N=Cc1ccccc1O`, the melting point fell in the range of 95 to 97 °C.
Next, `CN=C1SC2Cc3ccc(S(C)(=O)=O)cc3C2(O)N1C` (stereo not drawn): 158 °C; `NC(=O)Nc1cccc2c1C(=O)c1c-2n[nH]c1-c1ccco1`: 278 °C; `N#Cc1[nH]c(-c2ccc(Cl)cc2)c(S(=O)(=O)C(F)(F)F)c1Br`: 170 to 185 °C.
Next, `CCOCc1nc2c(N)nc3cccnc3c2n1CCCCN(OC)C(C)=O`: 180 to 181 °C; `Cc1ccc2[nH]c(-c3ccccc3O)cc2c1`: 211 to 215 °C.
Next, `CC(C(=O)O)c1ccc2cc(OCc3ccc4ccccc4c3)ccc2c1` (stereo not drawn): 216 to 218 °C.
`Cn1ccnc1Sc1ccc2[nH]nc(Nc3nccs3)c2c1` returned a melting point greater than 250 °C.
Next, `CCCCCCCCCCc1csc2c1sc1c3scc(CCCCCCCCCC)c3sc21`: 111 to 113 °C; `NC(=O)N(O)CC1=CCC(c2ccccc2)CC1` (stereo not drawn): 142 to 143 °C.
Next, `N#Cc1c(SC(F)(F)F)c(NC(=O)C(F)(F)F)n(-c2c(Cl)cc(C(F)(F)F)cc2Cl)c1Cl`: 190 °C.
Next, `CC(C)(C)OC(=O)NCCNc1n[nH]c2ncnc(Nc3cccc(Cl)c3)c12`: 206 to 208 °C.
On to `Fc1ccc(-n2ccc3cc(-c4cccnc4)ccc32)cc1`, for which the melting point is 108 to 110 °C.
Under `CC1(C)OC(c2ccc(S(C)(=O)=O)c(F)c2)=C(c2ccc(N)cc2)C1=O` stands 199 to 200 °C.
Next, `O=C(/C=C/C=C/C(=O)NCCCOc1cccc(CN2CCCC2)c1)NCCCOc1cccc(CN2CCCC2)c1`: 178 to 180 °C; `CCOC(=O)c1cc(NCc2ccccc2)c(Nc2cccc(C(F)(F)F)c2)c(S(N)(=O)=O)c1`: 189 to 190 °C.
Next, `CCOC(=O)c1cn(C)nc1C(F)F`: 43 to 46 °C.
The compound `CC(=O)Nc1nc2c(Oc3cc(-c4ccc(C(F)(F)F)cc4)ncn3)cccc2o1` showed a melting point of 205 °C.
Under `CC(O)c1ccc(-c2ccc(Cl)c(Cl)c2)o1` (stereo not drawn) stands 82.5 to 83.5 °C.
Under `COc1ccc(C2(C#Cc3cccc(C(=O)O)c3)CCCC(=O)C2)cc1OC1CCCC1` (stereo not drawn) stands 71 to 73 °C; under `O=C(Nc1cccc(Cl)c1)c1cc(Br)ccc1O`, 231 to 232 °C; under `O=S1(=O)CCON=C1c1nc2ccccc2s1`, 226 to 227 °C.
Under `CCn1c(C)nc(OCc2ccc(OCc3ccc(F)cc3)cc2)c(C)c1=O` stands 81 to 82.3 °C; under `Cc1c(NC(=O)c2ccc(-c3ccc(F)cc3)cc2)ccc2cc(CN3CCOCC3)cnc12`, 176 to 178 °C.
`CNCc1ccc(C2=NCCN2C(=O)OC(C)(C)C)cc1` showed a melting point of 65 °C.
Under `CN1C(C)(C)CC(NC(=O)c2ccc(-c3cc4cc(Cl)c(Cl)cc4[nH]3)cc2)CC1(C)C` stands 325 °C; under `Clc1ccc(-c2[nH]nc(N3CCN(C4CC4)CC3)c2-c2ccncc2)cc1`, 264 to 265 °C.
Under `CC(=O)N(C)C1CCc2c([nH]c3ccccc23)C1` (stereo not drawn) stands 215 to 216 °C; under `O=c1ccc(CO)c[nH]1`, 130 °C.
Under `COC(=O)C=Cc1ccc2c(c1)cc(C)n2S(=O)(=O)c1ccccc1` stands 126 to 128 °C; under `CCC(O)(c1ccc(O)cc1)c1ccc(Br)cc1` (stereo not drawn), 161 to 162 °C.
`Cc1cc(C)cc(Oc2c(CCCc3ccccc3)c(C)[nH]c(=O)c2I)c1`: the melting point amounted to 220 °C.
Under `Cc1ccccc1C=CC=C1SC(=S)N(CC(=O)O)C1=O` stands 210 to 217 °C; under `CC1(Br)CN(C2SCN(c3cccc(OC(F)(F)F)c3)C2=O)C1=O` (stereo not drawn), 111 to 113 °C.
Under `O=C1N(Cc2ccco2)Cc2cnc(Nc3ccccc3)nc2N1c1cccc(CCO)c1` stands 195 °C.
Under `Cc1cc(C)nc(NC(C(=O)O)C(c2ccccc2)c2ccccc2)n1` (stereo not drawn) stands 172 to 174 °C; under `N#CC(C#N)=C1N(CCCNC2CCCCC2)CCN1CCN1CCCCC1`, 78 to 80 °C; under `O=C(O)c1cc(Br)ccc1OCC(F)(F)F`, 126 to 128 °C.
`CC(CCc1ccccc1)NC(CO)C(O)c1ccc(S(C)(=O)=O)cc1` (stereo not drawn): the melting point lay in the range of 120 to 122 °C.
In turn, `CCn1cc(C(=O)O)c(=O)c2cc(F)c(N3CCN(C(=O)OC(OC(=O)c4ccccc4)C(=O)OC(C)C)CC3)cc21` (stereo not drawn) yielded a melting point of 135 to 143 °C.
`O=C1NC(=O)c2c1ccc1[nH]c3ccc(O)cc3c21` came in with a melting point of 335 to 345 °C.
For the compound `O=C1CC(c2cccc(-n3ccnc3)c2)=Nc2cc(N3CCC(O)CC3)c(-c3ccc(F)cc3)cc2N1`, the melting point lay within 238 to 240 °C.
As for `COc1ccc2cc([C@H](C)C(=O)NNC(=O)CCCO[N+](=O)[O-])ccc2c1`, the melting point lay within 117 to 119 °C.
Under `CC(Oc1ccc2nc(N)sc2c1)c1c(F)ccc(Cl)c1F` (stereo not drawn) stands 160 °C.
Compound `CCn1cc(-c2nnn[nH]2)c(=O)c2cc(F)c(N3CCN(c4ncccn4)CC3)c(OC(F)F)c21` showed a melting point of 265 to 268 °C.
`CS(=O)c1ccccc1-c1nc2ncccc2o1` (stereo not drawn) registered a melting point of 154 to 156 °C.
Compound `COCCc1nc2c(N)nc3ccccc3c2n1CCOCCCc1ccccc1` returned a melting point of 104 °C.
`Clc1ccc(Nc2nc3ccccc3c3c2ncn3-c2ccco2)cc1Cl` registered a melting point of 135 to 138 °C.
Under `Cc1nc2ccccn2c1-c1csc(Nc2ccc(C(=O)NO)cc2)n1` stands 188 °C.
Under `ClCc1cccc2c1CCCC2` stands 51 to 52 °C; under `O=C1c2cccnc2N(N2CCCCC2)C2=NCCN12`, 206 to 207 °C; under `CCC(CC)n1nc(C)c2c(O)nc(C)nc21`, 202 to 203 °C.
Next, `O=c1c(C2=CS(=O)(=O)c3cc(NS(=O)(=O)c4ccccc4)ccc3N2)c(O)c2cc(F)ccc2n1CCC1CC1`: greater than 200 °C; `Cn1nnnc1SCC1(C)SC2C(NC(=O)Cn3cnnn3)C(=O)N2C1C(=O)O` (stereo not drawn): 152 to 154 °C.
`Oc1cc(O)c2cc(-c3cc(F)cc(F)c3)oc2c1` came in with a melting point of 208 to 209 °C.
Next, `Oc1c(C2(c3ccc4ccccc4c3O)c3ccccc3-c3ccccc32)ccc2ccccc12`: 268 to 290 °C.
Next, `O=C(Oc1ccc(Br)cc1)c1ccccc1`: 98 to 100 °C; `O=C1C(CCO)Oc2ccccc2N1Cc1ccc2ccccc2c1` (stereo not drawn): 81 to 87 °C.
